Laboratory results published in ChEMBL document CHEMBL5247624, “N-sulfonylpiperidinedispiro-1,2,4,5-tetraoxanes exhibit potent in vitro antiplasmodial activity and in vivo efficacy in mice infected with P. berghei ANKA” (Eur J Med Chem, 2022).
The source made the active and inactive calls. The rule behind the calls is not given here.

What was measured:
Plasmodium falciparum [1] = test: Antiplasmodial activity against erythrocytic stage of chloroquine-sensitive Plasmodium falciparum 3D7 assessed as inhibition of parasite growth incubated for 3 days by HRP2-ELISA assay; format: functional, organism-based; details: 3D7, 72 h
Huh-7 = test: Cytotoxicity against human Huh-7 cells assessed as reduction in cell viability incubated for 72 hrs by MTT assay; format: functional
Plasmodium falciparum [2] = test: Antiplasmodial activity against erythrocytic stage of chloroquine-sensitive Plasmodium falciparum 3D7 infected in human RBC assessed as increase in intracellular ROS level by measuring green fluorescence at 10 uM incubated for 3 hrs by H2DCFDA probe based fluorescence microscopic analysis; format: functional, organism-based; details: Erythrocyte
Plasmodium berghei [3] = test: Antiplasmodial activity against Plasmodium berghei ANKA infected in Swiss albino mouse assessed as reduction of parasitaemia at 60 mg/kg/day,ip qd administrated for 5 subsequent days by Giemsa staining assay relative to control; format: functional; parameters: scale not given: the % may be the effect or the level left
Plasmodium berghei [4] = test: Antiplasmodial activity against Plasmodium berghei ANKA infected in Swiss albino mouse assessed as reduction of parasitaemia at 60 mg/kg/day,ip qd measured after 72 hrs post administration by Giemsa staining assay; format: functional, organism-based
Plasmodium falciparum [5] = test: Antiplasmodial activity against erythrocytic stage of chloroquine-sensitive Plasmodium falciparum 3D7 infected in human RBC assessed as increase in intracellular ROS level at 10 uM incubated for 3 hrs by H2DCFDA probe based flow cytometry; format: functional, organism-based; details: Erythrocyte
Plasmodium berghei [6] = test: Antiplasmodial activity against Plasmodium berghei ANKA infected in Swiss albino mouse assessed as parasite recrudescence by measuring parasitemia at 60 mg/kg/day,ip qd administrated for 4 subsequent days by Giemsa staining assay; format: functional
Plasmodium berghei [7] = test: Antiplasmodial activity against Plasmodium berghei ANKA infected in Swiss albino mouse assessed as partial cure by measuring parasitemia at 60 mg/kg/day,ip qd measured after 48 hrs post administration by Giemsa staining assay; format: functional, organism-based
Plasmodium berghei [8] = test: Antiplasmodial activity against Plasmodium berghei ANKA infected in Swiss albino mouse assessed as reduction of parasitaemia at 60 mg/kg/day,ip qd measured at 24 hrs post administration by Giemsa staining assay relative to control; format: functional; parameters: scale not given: the % may be the effect or the level left
Plasmodium berghei [9] = test: Antiplasmodial activity against Plasmodium berghei ANKA infected in Swiss albino mouse assessed as increase in parasite clearance rate at 60 mg/kg/day,ip qd administrated for 5 subsequent days by Giemsa staining assay; format: functional, organism-based
Plasmodium berghei [10] = test: Antiplasmodial activity against Plasmodium berghei ANKA infected in Swiss albino mouse assessed as increase in animal survival rate at 60 mg/kg/day,ip qd administrated for 5 subsequent days; format: functional, organism-based
Plasmodium berghei [11] = test: Antiplasmodial activity against Plasmodium berghei ANKA infected in Swiss albino mouse assessed as reduction of parasitaemia at 60 mg/kg/day,ip qd measured after 72 hrs post administration by Giemsa staining assay relative to control; format: functional; parameters: scale not given: the % may be the effect or the level left
Plasmodium falciparum [12] = test: Antiplasmodial activity against Plasmodium falciparum W2 infected in human RBC assessed as inhibition of parasite growth incubated for 48 hrs by flow cytometry; format: functional, organism-based; details: W2, Erythrocyte
Plasmodium berghei [13] = test: Antiplasmodial activity against Plasmodium berghei infected in Swiss Webster mouse assessed as reduction of parasitaemia by measuring partial cure at 2 mg/kg/day,po administrated for 4 days; format: functional; parameters: scale not given: the % may be the effect or the level left; details: time 4 day

SMILES	IC50 (Plasmodium falciparum [1])	CC50 (Huh-7)	further results
CCS(=O)(=O)N1CCC2(CC1)OOC1(CCCCCC1)OO2	62.5 nM	> 100 µg/mL	–
CCS(=O)(=O)N1CCC2(CC1)OOC1(CCCCC1)OO2	10.5 nM	> 100 µg/mL	Activity (Plasmodium falciparum [2]): Active; Activity (Plasmodium berghei [3]): 100%; Activity (Plasmodium berghei [4]): Active; Activity (Plasmodium falciparum [5]): Active; Activity (Plasmodium berghei [6]): >0.1%; Activity (Plasmodium berghei [7]): inactive
C1CCCC2(CC1)OOC1(CCCCCC1)OO2	39.4 nM	> 100 µg/mL	–
O=S(=O)(c1ccc(Br)cc1F)N1CCC2(CC1)OOC1(CCCCC1)OO2	322 nM	> 100 µg/mL	–
CCCS(=O)(=O)N1CCC2(CC1)OOC(C)(C1CC1)OO2	60.2 nM	> 100 µg/mL	–
CCCCS(=O)(=O)N1CCC2(CC1)OOC1(CCCCCC1)OO2	13.8 nM	> 100 µg/mL	–
CCCS(=O)(=O)N1CCC2(CC1)OOC(C)(CC)OO2	23.3 nM	> 100 µg/mL	–
O=S(=O)(c1ccc(Br)cc1F)N1CCC2(CC1)OOC1(CCCCCC1)OO2	10.4 nM	> 100 µg/mL	Activity (Plasmodium falciparum [2]): Active; Activity (Plasmodium falciparum [5]): Active; Activity (Plasmodium berghei [6]): >0.1%; Activity (Plasmodium berghei [7]): inactive
CCCS(=O)(=O)N1CCC2(CC1)OOC(C)(c1ccccc1)OO2	129 nM	> 100 µg/mL	–
Cc1ccc(S(=O)(=O)N2CCC3(CC2)OOC2(CCCCC2)OO3)cc1	40.2 nM	> 100 µg/mL	–
CCN(CC)CCCC(C)Nc1ccnc2cc(Cl)ccc12 (stereo not drawn) [CHLOROQUINE]	4.36 nM	> 100 µg/mL	Activity (Plasmodium berghei [8]): 100%
CCCS(=O)(=O)N1CCC2(CC1)OOC(C)(c1ccc(Cl)cc1)OO2	8360 nM	> 100 µg/mL	–
O=S(=O)(Cc1ccccc1)N1CCC2(CC1)OOC1(CCCCC1)OO2	49.4 nM	> 100 µg/mL	–
CS(=O)(=O)N1CCC2(CC1)OOC1(CCCC1)OO2	41.9 nM	> 100 µg/mL	–
CS(=O)(=O)N1CCC2(CC1)OOC1(CCN(S(C)(=O)=O)CC1)OO2	39.6 nM	> 100 µg/mL	–
O=S(=O)(CCCCl)N1CCC2(CC1)OOC1(CCCC1)OO2	8.43 nM	> 100 µg/mL	Activity (Plasmodium berghei [9]): Active; Activity (Plasmodium berghei [10]): Active; Activity (Plasmodium berghei [8]): <0.1%; Activity (Plasmodium falciparum [2]): Active; Activity (Plasmodium berghei [4]): Active; Activity (Plasmodium falciparum [5]): Active; Activity (Plasmodium berghei [11]): 100%; Activity (Plasmodium berghei [6]): inactive; Activity (Plasmodium berghei [7]): Active
COc1ccc(S(=O)(=O)N2CCC3(CC2)OOC2(CCCC2)OO3)cc1	25.3 nM	> 100 µg/mL	–
CCS(=O)(=O)N1CCC2(CC1)OOC1(CCCC1)OO2	11.8 nM	> 100 µg/mL	–
Cc1ccc(S(=O)(=O)N2CCC3(CC2)OOC2(CCCC2)OO3)cc1	24.2 nM	> 100 µg/mL	–
O=S(=O)(c1ccc(F)cc1)N1CCC2(CC1)OOC1(CCCC1)OO2	67 nM	> 100 µg/mL	–
C[C@@H]1CC[C@H]2[C@@H](C)C(=O)O[C@@H]3O[C@@]4(C)CC[C@@H]1[C@]32OO4 [ARTEMISININ]	4.74 nM	–	–
O=S(=O)(c1ccc(F)cc1)N1CCC2(CC1)OOC1(CCCCCC1)OO2	37.4 nM	> 100 µg/mL	–

SMILES	IC50 (Plasmodium falciparum [1])	CC50 (Huh-7)	further results
O=S(=O)(c1ccc(F)cc1)N1CCC2(CC1)OOC1(CCCCC1)OO2	77.4 nM	> 100 µg/mL	–
CCCS(=O)(=O)N1CCC2(CC1)OOC1(CCCCC1)OO2	12.9 nM	> 100 µg/mL	Activity (Plasmodium falciparum [2]): Active; Activity (Plasmodium falciparum [5]): Active; Activity (Plasmodium berghei [6]): >0.1%; Activity (Plasmodium berghei [7]): inactive
CS(=O)(=O)N1CCC2(CC1)OOC1(CCCCCC1)OO2	9.67 nM	> 100 µg/mL	Activity (Plasmodium falciparum [2]): Active; Activity (Plasmodium falciparum [5]): Active; Activity (Plasmodium berghei [6]): >0.1%; Activity (Plasmodium berghei [7]): inactive
COc1ccc(S(=O)(=O)N2CCC3(CC2)OOC2(CCCCCC2)OO3)cc1	46.6 nM	> 100 µg/mL	–
O=S(=O)(Cc1ccccc1)N1CCC2(CC1)OOC1(CCCCCC1)OO2	64.7 nM	> 100 µg/mL	–
CS(=O)(=O)N1CCC2(CC1)OOC1(CCCCC1)OO2	16.3 nM	> 100 µg/mL	–
COc1ccc(S(=O)(=O)N2CCC3(CC2)OOC2(CCCCC2)OO3)cc1	32.2 nM	> 100 µg/mL	–
CC(C)(N)CNC(=O)O[C@@H]1CCC[C@]2(C1)OOC1(O2)C2CC3CC(C2)CC1C3 (stereo partly drawn)	–	–	EC50 (Plasmodium falciparum [12]): 1.8 nM; Activity (Plasmodium berghei [13]): 100%
CCCS(=O)(=O)N1CCC2(CC1)OOC1(CCCC1)OO2	9450 nM	> 100 µg/mL	–
CCCS(=O)(=O)N1CCC2(CC1)OOC(C)(C(C)C)OO2	21.4 nM	> 100 µg/mL	–
O=S(=O)(c1ccc(Br)cc1F)N1CCC2(CC1)OOC1(CCCC1)OO2	44.2 nM	> 100 µg/mL	–
O=S(=O)(CCCCl)N1CCC2(CC1)OOC1(CCCCCC1)OO2	13 nM	> 100 µg/mL	–
CCCCS(=O)(=O)N1CCC2(CC1)OOC1(CCCC1)OO2	41.9 nM	> 100 µg/mL	–
C[C@H]1[C@H](OC(=O)CCC(=O)O)O[C@@H]2O[C@@]3(C)CC[C@H]4[C@H](C)CC[C@@H]1[C@@]24OO3 [ARTESUNATE]	3.3 nM	> 100 µg/mL	–
CCCCS(=O)(=O)N1CCC2(CC1)OOC1(CCCCC1)OO2	57.2 nM	> 100 µg/mL	–
CCCC1(C)OOC2(CCN(S(=O)(=O)CCC)CC2)OO1	10.9 nM	> 100 µg/mL	Activity (Plasmodium falciparum [2]): Active; Activity (Plasmodium falciparum [5]): Active; Activity (Plasmodium berghei [6]): >0.1%; Activity (Plasmodium berghei [7]): inactive
C[C@H]1[C@@H](O)O[C@@H]2O[C@@]3(C)CC[C@H]4[C@H](C)CC[C@@H]1[C@@]24OO3 [ARTENIMOL]	0.7 nM	> 100 µg/mL	–
O=S(=O)(Cc1ccccc1)N1CCC2(CC1)OOC1(CCCC1)OO2	20.6 nM	> 100 µg/mL	–
Cc1ccc(S(=O)(=O)N2CCC3(CC2)OOC2(CCCCCC2)OO3)cc1	55.3 nM	> 100 µg/mL	–
CCCS(=O)(=O)N1CCC2(CC1)OOC(C)(C)OO2	101 nM	> 100 µg/mL	–
O=S(=O)(CCCCl)N1CCC2(CC1)OOC1(CCCCC1)OO2	40.6 nM	> 100 µg/mL	–
CCCS(=O)(=O)N1CCC2(CC1)OOC1(CCCCCC1)OO2	4.7 nM	> 100 µg/mL	Activity (Plasmodium falciparum [2]): Active; Activity (Plasmodium falciparum [5]): Active; Activity (Plasmodium berghei [6]): >0.1%; Activity (Plasmodium berghei [7]): inactive
